From publication PMC12400753 (Respiratory Research, 2025)

Assays:
Type in all cases: cell-based
human LPAR6 = target: T1, human LPAR6 (Homo sapiens, UniProt P43657); test: LPA-induced calcium mobilization in transiently transfected HEK293T cells; settings: 3 h preincubation; LPA at EC80 13 µM
T1 construct: host or cells: HEK293T
T1 sequence (P43657 1-344): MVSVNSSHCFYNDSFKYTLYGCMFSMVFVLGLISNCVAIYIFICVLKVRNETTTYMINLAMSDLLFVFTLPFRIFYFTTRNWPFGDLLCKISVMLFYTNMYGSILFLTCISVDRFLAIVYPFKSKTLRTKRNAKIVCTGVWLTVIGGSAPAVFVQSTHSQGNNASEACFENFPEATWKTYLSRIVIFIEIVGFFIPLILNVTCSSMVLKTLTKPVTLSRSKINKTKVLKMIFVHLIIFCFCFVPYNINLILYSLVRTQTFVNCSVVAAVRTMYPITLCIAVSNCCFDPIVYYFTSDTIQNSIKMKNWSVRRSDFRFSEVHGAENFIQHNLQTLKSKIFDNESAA
Description: (§1) We had previously assessed selectivity against LPAR2 and 3 [11]. […] Human LPAR1-6 plasmids were each transiently transfected into HEK293T cells and the EC80 (effective concentration producing 80% maximal effect) for LPA activation empirically determined. Selectivity was then tested in a concentration response paradigm using a 3 h preincubation followed by LPA-induced calcium mobilization.
(§2) Plasmids containing human LPAR1-6 were obtained from Origene (Rockville, MD) and maxiprepped at Eton Biosciences (San Diego, CA). Transfection mix was prepared by adding Fugene 6 transfection mix to serum free media and 0.1 µg plasmid. After a 20 m incubation, HEK293T cells (ATCC, Manassas VA) were lifted with Accutase and added to the Fugene mix at a final concentration of 0.5 × 10^4 cells/well. Cells were then plated on black clear bottom 96-well plates and incubated overnight in a 37 °C, 5% CO2 incubator. […] During the last hour of incubation, media was removed and replaced with Fluo-4 NW calcium assay dye prepared as per manufacturer’s recommendations in assay buffer. Agonist plates containing LPA were prepared for individual receptor subytpes using their respective EC80. Calcium mobilization was measured as per manufacturer’s directions on a Flexstation 3 (Molecular Devices, San Jose, CA).

human LPAR2 = target: T2, human LPAR2 (Homo sapiens, UniProt Q9HBW0); test: as above; settings: 3 h preincubation; LPA at EC80 5 µM
T2 construct: host or cells: HEK293T
T2 sequence (Q9HBW0 whole entry): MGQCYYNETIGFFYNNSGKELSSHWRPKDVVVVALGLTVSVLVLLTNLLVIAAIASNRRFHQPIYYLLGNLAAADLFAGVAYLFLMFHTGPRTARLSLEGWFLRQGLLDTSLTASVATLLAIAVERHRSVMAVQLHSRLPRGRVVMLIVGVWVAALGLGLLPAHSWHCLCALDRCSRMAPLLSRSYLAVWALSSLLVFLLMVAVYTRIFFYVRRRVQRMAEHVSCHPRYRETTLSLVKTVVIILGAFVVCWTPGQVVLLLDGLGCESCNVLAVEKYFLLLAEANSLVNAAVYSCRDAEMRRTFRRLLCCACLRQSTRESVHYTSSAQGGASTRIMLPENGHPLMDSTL
Description: as §1, §2

human LPAR3 = target: T3, human LPAR3 (Homo sapiens, UniProt Q9UBY5); test: as above; settings: 3 h preincubation; LPA at EC80 10 µM
T3 construct: host or cells: HEK293T
T3 sequence (Q9UBY5 1-353): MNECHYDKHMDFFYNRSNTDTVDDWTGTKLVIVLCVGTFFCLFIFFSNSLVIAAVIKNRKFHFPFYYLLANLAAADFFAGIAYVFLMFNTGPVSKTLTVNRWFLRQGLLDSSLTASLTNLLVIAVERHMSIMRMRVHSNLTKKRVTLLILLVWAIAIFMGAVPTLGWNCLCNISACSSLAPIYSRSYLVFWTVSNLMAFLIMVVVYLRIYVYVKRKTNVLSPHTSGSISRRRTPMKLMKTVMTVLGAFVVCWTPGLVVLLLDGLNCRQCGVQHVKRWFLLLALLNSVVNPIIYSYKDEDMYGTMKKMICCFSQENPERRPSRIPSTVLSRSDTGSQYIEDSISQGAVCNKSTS
Description: as §1, §2

human LPAR5 = target: T4, human LPAR5 (Homo sapiens, UniProt Q9H1C0); test: as above; settings: 3 h preincubation; LPA at EC80 1 µM
T4 construct: host or cells: HEK293T
T4 sequence (Q9H1C0 whole entry): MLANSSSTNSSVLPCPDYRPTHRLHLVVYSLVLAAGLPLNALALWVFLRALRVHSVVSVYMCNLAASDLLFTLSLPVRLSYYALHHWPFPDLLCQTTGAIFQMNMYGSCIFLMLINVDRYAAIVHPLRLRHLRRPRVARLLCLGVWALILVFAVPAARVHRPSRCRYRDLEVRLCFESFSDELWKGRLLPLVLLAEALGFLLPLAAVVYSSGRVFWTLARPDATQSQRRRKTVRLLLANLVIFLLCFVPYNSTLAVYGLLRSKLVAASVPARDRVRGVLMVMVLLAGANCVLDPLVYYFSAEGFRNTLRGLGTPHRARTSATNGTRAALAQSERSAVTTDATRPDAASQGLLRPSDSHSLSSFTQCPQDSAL
Description: as §1, §2

human LPAR4 = target: T5, human LPAR4 (Homo sapiens, UniProt Q99677); test: as above; settings: 3 h preincubation; LPA at EC80 10 µM
T5 construct: host or cells: HEK293T
T5 sequence (Q99677 whole entry): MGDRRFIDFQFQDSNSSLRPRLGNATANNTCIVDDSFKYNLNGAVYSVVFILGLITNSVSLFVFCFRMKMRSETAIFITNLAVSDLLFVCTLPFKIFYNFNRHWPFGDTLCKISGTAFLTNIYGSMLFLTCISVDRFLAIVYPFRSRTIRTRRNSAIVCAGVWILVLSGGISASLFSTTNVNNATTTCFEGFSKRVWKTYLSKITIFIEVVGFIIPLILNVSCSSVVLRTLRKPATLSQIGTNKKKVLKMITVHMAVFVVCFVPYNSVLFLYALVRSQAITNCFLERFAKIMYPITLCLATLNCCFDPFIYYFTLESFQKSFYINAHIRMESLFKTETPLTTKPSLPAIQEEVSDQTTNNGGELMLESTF
Description: as §1, §2

[1] = system: primary human lung fibroblasts; test: LPA-induced COL1A1 expression (immunocytochemistry); settings: 1 µM LPA 8 h; compound overnight; read-out: IC50 inhibition of COL1A1 expression
Description: COL1A1 assay: Primary human lung fibroblasts were plated in a 96-well plate and allowed to adhere. […] The next day, cells were treated with 1 µM LPA and incubated for 8 h. After incubation in LPA, cells were immunostained for COL1A1. Cells were fixed in formalin for 10 min, washed 3 x with PBS, incubated in collagen 1A1 antibody (1:250 in blocking buffer, 0.1% Triton X-100 in PBS, 2 h), and washed 3 x with PBS. Secondary antibody solution (1:500) and Hoechst (1:2000) were added for 1 h, washed 3 x in PBS then imaged on a Nikon A1R confocal microscope at 10x magnification except human lung fibroblasts which were imaged at 4x. Collagen area was quantified with ImageJ and normalized to Hoechst per image.

With COc1ccc(NC(=O)N(c2ccccc2C(C)C)C2CCC(C(=O)O)CC2)c(OC(F)F)n1 (stereo not drawn) [PIPE-791] the IC50 (human LPAR6) was 805 nM, the IC50 (human LPAR2) was 463 nM and the IC50 (human LPAR3) was 398 nM. It also gave an IC50 (human LPAR5) of 114 nM, an IC50 (human LPAR4) of 607 nM and an IC50 [1] of 1.1 nM.
